One may read the LD50 as the dose at which mortality reaches 50%.

The values below come from patent EP0019764A1, “Trans-3-(4'-tert.-butyl-cyclohexyl-1')-2-methyl-1-(3'-methylpiperidino, 3',5'-dimethylpiperidino and 2', 6'-dimethylmorpholino) propane, process for their pure preparation, antimycotic agents containing them and their utilisation” (BASF Aktiengesellschaft, priority 1979, dated 1980).

The test system of one data set is Microsporum canis. The data set can be described thus: agar dilution test, minimal inhibitory concentration. It counts as cell-based. Conditions: Agardilutionstest, read-out: MHK-Werte. From the text: (§1) Die Wirkung gegenüber Mikroorganismen kann nach Methoden, wie sie beispielsweise in P. Klein, Bakteriologische Grundlagen der chemotherapeutischen Laboratoriumspraxis, Springer-Verlag Berlin, 1957, beschrieben sind, aufgezeigt werden.
(§2) Beispielsweise wurde geprüft, welche minimalen Hemmkonzentrationen (MHK-Werte) im Agardilutionstest gegen pathogene Pilze erreicht werden können.
(§3) In der folgenden Tabelle 1 sind die Ergebnisse zusammengefaßt: […]
A general note: Agar dilution tests growth on a series of plates holding different concentrations.

Another data set has as its system Trichophyton rubrum. The description is as above. It counts as cell-based. Conditions: Stamm No 158/M, Agardilutionstest, read-out: MHK-Werte.
Source text: as §1, §2, §3

Another data set has as its system Epidermophyton floccosum. The description is as above. It is filed as cell-based. To be noted: Stamm No 157/M, Agardilutionstest, read-out: MHK-Werte.
Source text: as §1, §2, §3

A further data set deals with Microsporum ferrugineum. The description is as above. It is filed as cell-based. To be noted: Stamm No 5/M, Agardilutionstest, read-out: MHK-Werte.
Source text: as §1, §2, §3

The next data set concerns Trichophyton violaceum. Described as above. It is filed as cell-based. To be noted: Stamm No 10/M, Agardilutionstest, read-out: MHK-Werte.
Source text: as §1, §2, §3

Data set [1] relates to Trichophyton schoenleinii. The description is as above. It counts as cell-based. Conditions: Stamm No 9/M, Agardilutionstest, read-out: MHK-Werte.
Source text: as §1, §2, §3

For data set [2], the system named is Trichophyton mentagrophytes. Described as above. Conditions: Agardilutionstest, read-out: MHK-Werte. It counts as cell-based.
Source text: as §1, §2, §3

A further data set deals with Microsporum gypseum. Described as above. It counts as cell-based. Conditions: Nannizzia gypsea; Stamm No 156/M; Agardilutionstest; read-out: MHK-Werte.
Source text: as §1, §2, §3

Data set [3] deals with humanpathogenen Pilzen und Hefen aus dem Verwandtschaftskreis der Dermatophyten. As to the kind of experiment: inhibitory effect on microorganisms, trans compound compared with cis compound. To be noted: compared with the respective cis compound; Hemmeffekte gegenüber Mikroorganismen. It counts as cell-based. The source says:
Aufgrund der überraschenden Feststellung, daß die reinen trans-Verbindungen gegenüber humanpathogenen Pilzen und Hefen aus dem Verwandtschaftskreis der Dermatophyten um das 10-fache und noch darüber hinaus stärker wirksam sind als die cis-Verbindungen, ist es eine Aufgabe der Erfindung, Verfahren zur Herstellung der reinen trans-Verbindungen (1) bis (3) zu entwickeln.
überraschenderweise sind die reinen trans-Verbindungen fast ausschließlich Träger der guten antimykotischen Wirkung. Verglichen mit der jeweiligen cis-Verbindung und bezogen auf die Hemmeffekte gegenüber Mikroorganismen, sind die trans-Verbindungen (1), (2) und (3) 10-fach und noch darüber hinaus stärker wirksam. Das bedeutet beispielsweise bei etwa gleichen Toxizitätswerten eine wesentliche Verbesserung der therapeutischen Breite.

A short description of data set [4]: acute oral toxicity (LD50) in the mouse. Conditions: in vivo, Maus per os. The source says: Aus diesen LD50-Werten ergibt sich für die topische und systemische Anwendung nach oraler Gabe eine genügend therapeutische Breite.

≈ marks a conversion by molar mass, not a printed value. Like-named read-outs stand apart in the source and are kept apart here.

Turning to `Clc1ccc(COC(Cn2ccnc2)c2ccc(Cl)cc2Cl)c(Cl)c1` (centres unmarked) [Miconazol, reference compound], the MIC with Microsporum canis (Stamm No 155/M), in the data set on Microsporum canis (Stamm No 167/M), with Microsporum canis (Stamm No 168/M), in the data set with Microsporum canis (Stamm No 169/M), in the data set on Trichophyton rubrum and with Epidermophyton floccosum was more than 1.28 µg/mL each time. The MIC was more than 1.28 µg/mL in the data set on Microsporum ferrugineum; 0.64 µg/mL (≈ 1.54 µM) with Trichophyton violaceum; more than 1.28 µg/mL in data set [1]; more than 1.28 µg/mL in data set [2] (Stamm No 19/M); more than 1.28 µg/mL in data set [2] (Stamm No 21/M); 0.32 µg/mL (≈ 0.769 µM) in [2] (Stamm No 159/M). The MIC in [2] (Stamm No 160/M) was more than 1.28 µg/mL; in data set [2] (Stamm No 170/M) it was 1.28 µg/mL (≈ 3.08 µM); in [2] (Stamm No 171/M) it was 0.64 µg/mL (≈ 1.54 µM); in data set [2] (Stamm No 172/M), 0.32 µg/mL (≈ 0.769 µM); in data set [2] (Stamm No 173/M) it was 0.32 µg/mL (≈ 0.769 µM); in data set [2] (Stamm No 174/M), more than 1.28 µg/mL. In the data set with Microsporum gypseum, the MIC was more than 1.28 µg/mL.
Regarding `Cc1cccc(N(C)C(=S)Oc2ccc3ccccc3c2)c1` [Tolnaftat, reference compound], the MIC was determined as 0.32 µg/mL (≈ 1.04 µM) in the data set on Microsporum canis (Stamm No 155/M); 0.16 µg/mL (≈ 0.52 µM) with Microsporum canis (Stamm No 167/M); 0.04 µg/mL (≈ 0.13 µM) in the data set with Microsporum canis (Stamm No 168/M); 0.32 µg/mL (≈ 1.04 µM) with Microsporum canis (Stamm No 169/M); 0.08 µg/mL (≈ 0.26 µM) with Trichophyton rubrum; 0.32 µg/mL (≈ 1.04 µM) in the data set on Epidermophyton floccosum. Also, the MIC is 0.16 µg/mL (≈ 0.52 µM) with Microsporum ferrugineum; less than 0.01 µg/mL in the data set on Trichophyton violaceum; 0.04 µg/mL (≈ 0.13 µM) in data set [1]; 0.04 µg/mL (≈ 0.13 µM) in data set [2] (Stamm No 19/M); 0.32 µg/mL (≈ 1.04 µM) in data set [2] (Stamm No 21/M); 0.08 µg/mL (≈ 0.26 µM) in [2] (Stamm No 159/M). For the same molecule, the MIC in data set [2] (Stamm No 160/M) was 0.32 µg/mL (≈ 1.04 µM); in [2] (Stamm No 170/M), 0.08 µg/mL (≈ 0.26 µM); in data set [2] (Stamm No 171/M) it was 0.16 µg/mL (≈ 0.52 µM); in data set [2] (Stamm No 172/M), 0.64 µg/mL (≈ 2.08 µM); in data set [2] (Stamm No 173/M), 0.32 µg/mL (≈ 1.04 µM); in data set [2] (Stamm No 174/M), 0.08 µg/mL (≈ 0.26 µM). Besides, the MIC in the data set with Microsporum gypseum was found to be 0.16 µg/mL (≈ 0.52 µM).
Take `CC1CCCN(CC(C)C[C@H]2CC[C@@H](C(C)(C)C)CC2)C1` (relative stereo) [(1) cis, cis- und trans-3-(4-tert.-Butyl-cyclohexyl-1)-2-methyl-1-(3'-methyl-1-piperidino)-propan]: the MIC in the data set with Microsporum canis (Stamm No 167/M) stood at 0.25 µg/mL (≈ 0.852 µM); in the data set on Microsporum canis (Stamm No 168/M), 0.0625 µg/mL (≈ 0.213 µM); in the data set with Microsporum canis (Stamm No 169/M) it was 0.5 µg/mL (≈ 1.7 µM); with Trichophyton rubrum, 0.25 µg/mL (≈ 0.852 µM); with Epidermophyton floccosum it was 0.25 µg/mL (≈ 0.852 µM); in the data set on Microsporum ferrugineum, 0.0312 µg/mL (≈ 0.106 µM). Moreover, the MIC was found to be 0.0625 µg/mL (≈ 0.213 µM) in the data set with Trichophyton violaceum; 0.5 µg/mL (≈ 1.7 µM) in data set [2] (Stamm No 19/M); 0.25 µg/mL (≈ 0.852 µM) in [2] (Stamm No 21/M); 0.0312 µg/mL (≈ 0.106 µM) in data set [2] (Stamm No 159/M); 0.25 µg/mL (≈ 0.852 µM) in data set [2] (Stamm No 160/M); 0.5 µg/mL (≈ 1.7 µM) in [2] (Stamm No 172/M). The MIC (in data set [2] (Stamm No 173/M); with Microsporum gypseum) was 0.25 µg/mL (≈ 0.852 µM) throughout.
On to `CC1CC(C)CN(CC(C)C[C@H]2CC[C@H](C(C)(C)C)CC2)C1` (relative stereo) [(2) trans, trans-3-(4'-tert.-Butyl-cyclohexyl-1')-2-methyl-1-(3',5'--dimethyl-l'-piperidino)-propan], for which the MIC with Microsporum canis (Stamm No 155/M) was 0.0312 µg/mL (≈ 0.101 µM); with Microsporum canis (Stamm No 167/M), 0.0156 µg/mL (≈ 0.0507 µM); with Microsporum canis (Stamm No 168/M), less than 0.0078 µg/mL; in the data set with Microsporum canis (Stamm No 169/M), 0.0312 µg/mL (≈ 0.101 µM); in the data set on Trichophyton rubrum it was 0.0312 µg/mL (≈ 0.101 µM); in the data set with Epidermophyton floccosum it was 0.0156 µg/mL (≈ 0.0507 µM). Besides, the MIC is less than 0.0078 µg/mL in the data set on Microsporum ferrugineum; less than 0.0078 µg/mL with Trichophyton violaceum; 0.0156 µg/mL (≈ 0.0507 µM) in data set [1]; 0.0625 µg/mL (≈ 0.203 µM) in data set [2] (Stamm No 19/M); 0.0312 µg/mL (≈ 0.101 µM) in data set [2] (Stamm No 21/M); less than 0.0078 µg/mL in [2] (Stamm No 159/M). The MIC was 0.0312 µg/mL (≈ 0.101 µM) in [2] (Stamm No 160/M); less than 0.0078 µg/mL in data set [2] (Stamm No 170/M); less than 0.0078 µg/mL in data set [2] (Stamm No 171/M); 0.0312 µg/mL (≈ 0.101 µM) in [2] (Stamm No 172/M); 0.0312 µg/mL (≈ 0.101 µM) in [2] (Stamm No 173/M); 0.0156 µg/mL (≈ 0.0507 µM) in data set [2] (Stamm No 174/M). For the same molecule, in the data set on Microsporum gypseum, the MIC was determined as 0.0312 µg/mL (≈ 0.101 µM). For the same molecule, the “stärker wirksam als die cis-Verbindung” value in data set [3] was not below 10 fach. The molecule also displayed an LD50 in data set [4] of 335 mg/kg.
Regarding `Clc1ccccc1C(c1ccccc1)(c1ccccc1)n1ccnc1` [Clotrimazol, reference compound], the MIC worked out at 0.32 µg/mL (≈ 0.928 µM) in the data set with Microsporum canis (Stamm No 155/M); 0.64 µg/mL (≈ 1.86 µM) with Microsporum canis (Stamm No 167/M); 0.16 µg/mL (≈ 0.464 µM) in the data set on Microsporum canis (Stamm No 168/M); 0.64 µg/mL (≈ 1.86 µM) with Microsporum canis (Stamm No 169/M); 1.28 µg/mL (≈ 3.71 µM) in the data set with Trichophyton rubrum; 0.32 µg/mL (≈ 0.928 µM) with Epidermophyton floccosum. Also, the MIC was 0.16 µg/mL (≈ 0.464 µM) with Microsporum ferrugineum; 0.16 µg/mL (≈ 0.464 µM) with Trichophyton violaceum; 0.64 µg/mL (≈ 1.86 µM) in data set [1]; 1.28 µg/mL (≈ 3.71 µM) in [2] (Stamm No 19/M); 1.28 µg/mL (≈ 3.71 µM) in data set [2] (Stamm No 21/M); 0.32 µg/mL (≈ 0.928 µM) in data set [2] (Stamm No 159/M). The MIC in data set [2] (Stamm No 160/M) stood at 0.64 µg/mL (≈ 1.86 µM); in [2] (Stamm No 170/M), 0.32 µg/mL (≈ 0.928 µM); in data set [2] (Stamm No 171/M), 0.32 µg/mL (≈ 0.928 µM); in data set [2] (Stamm No 172/M), 0.64 µg/mL (≈ 1.86 µM); in data set [2] (Stamm No 173/M) it was 0.64 µg/mL (≈ 1.86 µM); in data set [2] (Stamm No 174/M), 1.28 µg/mL (≈ 3.71 µM). Further, in the data set on Microsporum gypseum, the MIC came to 0.64 µg/mL (≈ 1.86 µM).
